Entries after “also recorded” stand apart in the source; their conditions may differ. Residues, ends and D or L forms follow the SMILES beside them.
Assays:
[1] = tested on: mitochondrial membrane of HeLa cells; conditions: HeLa; 40 μM, 1 hour in α-MEM(−); Lipofectamine LTX/pCI complex overnight in α-MEM(+)
From the text: Mitochondrial membranes are considered to be rich in acidic lipid, as compared with cell membranes. Accordingly, the effects of the above peptides on a mitochondrial membrane were examined by JC-1 assay. A JC-1 reagent emits red (J-aggregate) fluorescence when the mitochondrial membrane is kept normal and the membrane potential is maintained; and the JC-1 reagent emits green (J-monomer) fluorescence when the mitochondrial membrane is damaged and the membrane potential is not kept normal. After HeLa cells were incubated with HAad, HA/E2, or L17E (40 μM) in α-MEM(−) for 1 hour, JC-1 assay was performed. The percentage of cells that emitted red fluorescence was assayed by flow cytometry.

HeLa cells [2] = test: Release of Alexa 488-dextran (10 kDa) into the cytoplasm, confocal microscopy; assay type: cell-based
Experimental: Cells; HeLa, peptides; 40 μM, Alexa 488-dextran (10 kDa); 200 μg/mL, treatment; 1 hr in α-MEM(−).
Cells; HeLa, peptides; 40 μM, Alexa 488-dextran (10 kDa); 200 μg/mL, treatment; 1 hr in α-MEM(−). The results are presented as means ±SE (n=3). **; p<0.01 (Student's t-test).
Cells; HeLa, peptides; 40 μM, Alexa 488-dextran (10 kDa); 200 μg/mL, treatment; 1 hr in α-MEM(−). Results are presented as means±SE (n=3). *; p<0.05, **; p<0.01, ***; p<0.001 (one-way ANOVA followed by the Tukey-Kramer honestly significant difference test (post-hoc test)).
(§1) In the presence of each peptide obtained in Example 1 (L17E, L17E/Q21E, HA/E1, HA/E2) (40 μM) or in the absence of the peptides (a control, no peptide), HeLa cells and Alexa 488-dextran (Molecular Probes, 10 kDa) (200 μg/mL) were treated in α-MEM(−) for 1 hour. The cells were washed, and observed with a confocal microscope.
as §1, with “L17Aad)” for “L17E/Q21E, HA/E1, HA/E2)”
as §1, with “(HAad, HA/E2, L17Aad, L17E)” for “(L17E, L17E/Q21E, HA/E1, HA/E2)”
When HeLa cells were incubated with Alexa 488-dextran (10 kDa) (200 μg/mL) as a macromolecular drug model in the presence of HAad (40 μM) in α-MEM(−) for 1 hour, Alexa 488-dextran release into about 75% of cells (cytosol) was observed. In contrast, when the incubation was performed in the presence of L17E, Alexa 488-dextran release into about 50% of the cells was observed.
HeLa cells, Alexa 488-dextran (Molecular Probes, 10 kDa) (200 μg/mL), and HAad; or HeLa cells, Alexa 488-dextran, (Molecular Probes, 10 kDa) (200 μg/mL), and HAad-homoR (20 μM) were treated in α-MEM(−) for 1 hour. The cells were washed, and observed with a confocal microscope.

HeLa cells [3] = test: Nuclear accumulation of NLS-EGFP; assay type: cell-based; conditions: NLS-EGFP 10 μM; peptide 40 μM; α-MEM(−) 1 hour
Experimental: The cells and NLS-EGFP (10 μM) were incubated in the presence of HAad or L17E (40 μM each) in α-MEM(−) medium for 1 hour in the same manner as in Example 6. If NLS-EGFP is intracellularly released while maintaining its activity, localization of green fluorescence in the nuclei is observed. […] A high activity of HAad to release endosome-encapsulated substances was also confirmed in this system.

HeLa cells [4] = test: Release of Alexa 488-dextran (10 kDa) into the cytoplasm, confocal microscopy; assay type: cell-based; remark: listed apart in the source
[5] = Cell viability 24 hours after peptide treatment in the presence of serum (WST-8); assay type: cell-based; conditions: cells (cell line not given); peptide 10 μM, 20 μM and 40 μM; α-MEM(+) 24 hours; WST-8
Experimental: (§2) After the cells were incubated in the presence of HAad, HA/E2, or L17E (each 10 μM, 20 μM, and 40 μM) in α-MEM(+) medium for 24 hours, the cell viability (%) was evaluated by WST-8 assay (FIG. 14). The cell viability (%) after 24 hours with the use of any peptide at any concentration was almost 100%.

cells = test: as above; assay type: cell-based; conditions: 10-40 μM; α-MEM(+) 24 hours
Experimental: as §2

CC[C@H](C)[C@H](N)C(=O)N[C@@H](Cc1c[nH]c2ccccc12)C(=O)N[C@@H](CC(C)C)C(=O)N[C@H](C(=O)N[C@@H](C)C(=O)N[C@@H](CC(C)C)C(=O)N[C@@H](CCCCN)C(=O)N[C@@H](Cc1ccccc1)C(=O)N[C@@H](CC(C)C)C(=O)NCC(=O)N[C@@H](CCCCN)C(=O)N[C@@H](C)C(=O)N[C@@H](C)C(=O)N[C@@H](C)C(=O)N[C@@H](CCCCN)C(=O)N[C@@H](C)C(=O)N[C@@H](CCCC(=O)O)C(=O)N[C@@H](C)C(=O)N[C@@H](CCCCN)C(=O)N[C@@H](CCC(N)=O)C(=O)N[C@@H](CCCC(=O)O)C(=O)N[C@@H](CC(C)C)C(=O)N[C@@H](CO)C(=O)N[C@@H](CCCCN)C(=O)N[C@@H](CC(C)C)C(N)=O)[C@@H](C)O [HAad, H-IWLTALKFLGKAAAKAXAKQXLSKL-amide] (HELM PEPTIDE1{I.W.L.T.A.L.K.F.L.G.K.A.A.A.K.A.[O=C(O)CCC[C@H](N[*:1])C(=O)[*:2]].A.K.Q.[O=C(O)CCC[C@H](N[*:1])C(=O)[*:2]].L.S.K.L.[am]}$$$$V2.0)
effect on mitochondrial membrane (cells emitting red JC-1 fluorescence), in words [1]: no significant difference from the untreated case | cells in which release of Alexa 488-dextran into the cytoplasm was observed (HeLa cells [2]; peptide 20 μM, Alexa 488-dextran (10 kDa) 200 μg/mL, 1 hour in α-MEM(−)): about 40% | endosome-encapsulated substance (Alexa 488-dextran) releasing activity, in words (HeLa cells [2]; peptide 40 μM, Alexa 488-dextran 200 μg/mL, 1 hr, compared with L17E): higher endosomal content release activity than L17E; also recorded: Significant outflow; also recorded: much more effectively | cells in which Alexa 488-dextran release into the cytosol was observed (HeLa cells [2]; peptide 40 μM, Alexa 488-dextran (10 kDa) 200 μg/mL, 1 hour in α-MEM(−)): about 75% | cells in which localization of NLS-EGFP in the nuclei was observed (HeLa cells [3]): about 84% | EC50 (HeLa cells [4]; Alexa 488-dextran (10 kDa) 200 μg/mL, 1 hour, read-out: peptide concentration required to detect the signal of intracellularly released Alexa 488-dextran in 50% of the cells): 20 µM | EC50 relative to L17E (HeLa cells [4]; dextran release, HAad vs L17E): ½ | viability at 24 h [5]: ~100% | toxicity, in words (cells): no significant toxicity
